Reference: US20230105693A1, “ANTIMICROBIAL COMPOSITIONS” (Firmenich SA, priority 2020, published 2023)
Counter-ions that a name gives are not always drawn. Like-named read-outs stand apart in the source and are kept apart here.

Key:
[1] = Equivalent alkane carbon number (EACN) in model microemulsion system; type: physicochemical; conditions: C10E5/water/isopropyl myristate model system, 3% wt perfume ingredient
Method: EACN values provide information on polarity and surface activity of apolar ingredients. Tchakalova and Fieber (J. of Surfactants and Detergents, 2012, 15(2):167-177) classified perfume ingredients based on values of EACNmix, the EACN of a mixture consisting of a test perfume ingredient and a reference oil (isopropyl myristate). The same model system and method were used to measure the EACN values of perfume ingredients with antimicrobial activities. Different perfume ingredients were added to the model microemulsion system shown in Table 1, in which the nonionic pentaethylene glycol mono n-decyl ether (C10E5) was used as surfactant. Phase transition temperatures of the system from Winsor I to Winsor III, and from Winsor III to Winsor II were determined using a water bath. Alkanes with different alkane carbon numbers (octane, decane, dodecane and hexadecane) were used to establish a linear correlation curve between EACN and the PIT, which is the average of the transitions from Winsor I to Winsor III, and from Winsor III to Winsor II, respectively. EACNmix was then calculated based on the linear relationship and the measured PIT for systems containing different perfume ingredients. The EACN of the pure perfume ingredient was calculated based on the molar ratio of the tested PRMs in the oil phase using following equation: […]
wherein n and nref are the molar fractions of tested perfume ingredient and the reference ingredient (i.e., isopropyl myristate) in the oil phase, respectively.

[2] = tested on: Escherichia coli ATCC 10536; assay: Robotic BCT test of perfume ingredients in model surfactant bases; type: cell-based; conditions: for Log reduction (Log CFU/mL) Base 3: Base 3: SLES 1.5%, coco-glucoside 0.75%; for Log reduction (Log CFU/mL) Base 4: Base 4: SLES 2.25%, sodium xylene sulfonate 3%; for log reduction at 0.5 %: Escherichia coli, ATCC10536, 45 s
Method: The surfactant bases tested included 1) sodium lauryl ether sulfate (SLES) and cocamidopropyl betaine (CAPB) at 3:1 mass ratios; 2) SLES, CAPB and coco-glucoside at 2:1:1 mass ratios. Test samples were prepared by mixing perfume ingredients with the surfactant bases and vigorously stirred for 24 hrs. Concentration of perfume ingredients in the bases was 0.5% wt. Samples with transparent appearance were selected for antimicrobial testing.
Antimicrobial efficacy was tested against a representative Gram-negative bacterial strain, Escherichia coli ATCC 10536, using robotic bacteria contact time (BCT) test based on European standard EN-1276 and EP2787827(B1).
Preparation of screening plate and dilution plate: Aliquots (270 µl) of compositions were dispensed into the wells of a 96-well microtiter plate (MTP) along two columns (B1-H1, and B7-H7), and 270 µl of MilliQ water was added to well A1 and A7 as the control samples. This MTP was labelled as the “Screening plate”. In another MTP, labelled as the “Dilution plate”, 270 µL of Dey-Engley (D/E) neutralizing solution was added to column 1 and column 7. 270 µl of tryptone diluent solution was added to columns 2-6 and columns 8-12 of the Dilution MTP by a Hamilton robotic liquid handling station.
BCT test & neutralization & dilution: Bacterial stock (30 µl) was then added to columns 1 of the ‘Screening plate’ and mixed by a Hamilton robotic liquid handling station. After a contact time of 45 seconds, 30 µl of the mixtures in column 1 were transferred into the corresponding wells of column 1 of the ‘Dilution plate’. After neutralizing for 5 minutes in the D/E neutralizing solution, 30 µl of the neutralized mixtures were transferred from column 1 to column 2 of the Dilution MTP and mixed, followed by transferring 30 µl of the mixtures from column 2 into column 3. This process was repeated serially diluting the bacteria suspensions across the plate to column 6. Bacterial stock (30 µl) was then added to columns 7 of the ‘Screening plate’ and mixed by a Hamilton robotic liquid handling station. After a contact time of 45 seconds, 30 µl of the mixtures in column 7 were transferred into the corresponding wells of column 7 of the ‘Dilution plate’. After neutralizing for 5 minutes in the D/E neutralizing solution, 30 µl of the mixtures were transferred from column 7 to column 8 of the Dilution MTP and mixed, followed by transferring further 30 µl mixtures from column 8 into column 9. This process was repeated serially diluting the bacteria suspensions across the plate to column 12.
Plating: 30 µl volumes from each well in the Dilution MTP were transferred onto four Tryptone Soya Agar (TSA) plates. The TSA plates were allowed to stand for about two hours so that the 30 µl inocula spots could dry and the plates were then inverted and incubated overnight at 37° C. for 24 hours. After incubation, colonies were counted.
Calculating log reduction: Select the dilutions with colony counts, and calculate the viable cell counts (CFU/mL) of mixture in ‘Screening plate’, and log reduction against the control MilliQ sample was calculated.

[3] = tested on: E. coli ATCC 10536; assay: Bacterial contact time (BCT) test of perfume ingredients in 20% ethanol solution (EN-1276 based); type: cell-based, Escherichia coli; conditions: 20% EtOH, 45 s
Method: Bacterial suspensions of E. coli ATCC 10536 were prepared for antimicrobial testing as follows. Stock cultures stored at -80° C. were sub-cultured onto Tryptic Soy Agar (TSA) plate, and incubated at 37° C. for 24 h to obtain single colonies. Single colonies of the primary cultures were streaked onto TSA plates and incubated at 37° C. for 24 h to prepare the secondary cultures. Single colonies of secondary cultures were inoculated into 50 mL of Tryptic Soy broth (TSB), incubated at 37° C. 180 rpm for 18 h. Aliquots (0.5 ml) of the 18 h culture were inoculated into 50 ml of fresh TSB, and incubated at 37° C. 180 rpm for 2- 3 hours. When the OD600 nm value of the broth reached 1-2, cells were harvested by centrifugation at 5,000 rpm for 10 min, and then resuspended in the same fresh broth media to achieve the target level of 1-5 × 10^8 colony forming unit (CFU)/mL. This suspension was used for further antimicrobial tests.
Unless indicated otherwise, log reduction testing according to the present invention is determined in accordance with the following method.
Bacterial contact time (BCT) test based on European standard EN-1276 was used to determine dose dependent bactericidal activity of perfume ingredients in 20% ethanol solutions.
Perfume ingredients of various concentrations (doses) were prepared in 40% ethanol solutions. Eleven replicates of each sample were added into 96-well microtiter plates (120 µl per well) in column 1-11 of one row, with row B as the control sample of the ethanol solution. Then, 120 µl of cell suspension at a concentration of approximately 1-5 × 10^8 CFU/ML (as prepared above) were added to each well of the microtiter plate. A specified contact time (45 s) was allowed for target bacterial strains. At the end of the contact time, serial dilutions were prepared in 96 well plates with growth media: 3 times of 1 in 10 dilutions and followed by 17 times of 1 in 2 dilutions. Each plate was sealed and incubated at 37° C. under agitation (180 rpm). After incubation, turbidity of the wells (OD 600 nm) was recorded by Tecan microplate reader. Turbid cells were regarded as positive growth of viable cells. The total number of viable cells (log CFU/mL) for each sample was calculated. And the log reduction for each test composition at the final concentration (dose) was calculated against the control sample of the 20% ethanol solution.
Table 20 show the bactericidal dose related effect (log reduction) and calculated effect fraction of the Mixture C and compositions against E. coli ATCC 10536. Stock of compositions were prepared in 100% ethanol, then diluted in MilliQ water to obtain 2 × final concentration in 40% ethanol. BCT tests were conducted on samples against E. coli for a contact time of 45 s.

[4] = 0.5% perfume ingredient, CAPB 0.75%, contact 45 s
[5] = 0.5% perfume ingredient, Base 1: SLES 1.875%, CAPB 0.625%, contact 45 s, read-out: Log reduction in Base 1 (Log CFU/mL)
[6] = 0.5% perfume ingredient, Base 2: SLES 2.25%, CAPB 0.75%, contact 45 s, read-out: Log reduction (Log CFU/mL) Base 2
[7] = model base 1, table by functional group, read-out: Log reduction in Base 1 (Log CFU/mL)

CC(C)=CCC/C(C)=C\C=O [(2Z)-3,7-dimethyl-2,6-octadienal OR (2E)-3,7-dimethyl-2,6-octadienal]
EACN [1]: -5.09

CC(C)=CCC/C(C)=C\CO [(Z)-3,7-dimethyl-2,6-octadien-1-ol]
EACN [1]: -28.26
Log reduction (Log CFU/mL) Base 3 [2, 4]: 4.9 Log CFU/mL
Log reduction (Log CFU/mL) Base 4 [2, 4]: 4.5 Log CFU/mL
log reduction at 0.5 % [2, 5]: > 5.4
log reduction at 0.5 % [2, 6]: 0.5
log reduction at 0.5 % [2, 7]: > 5.5

CCCCCC1CCCC(=O)O1 (racemic) [(+-)-6-pentyltetrahydro-2H-pyran-2-one]
EACN [1]: -13.27

Cc1ccc2c(c1)CC(C)(CO)C2 (racemic) [(+-)-2,5-dimethyl-2-indanmethanol]
EACN [1]: -33.01

O=COCCc1ccccc1 [2-phenylethyl formate]
EACN [1]: -6.21
log reduction at 0.5 % [2, 5]: 0.3

CC/C=C\CC1=C(C)CCC1=O [3-methyl-2-[(2Z)-2-penten-1-yl]-2-cyclopenten-1-one]
EACN [1]: -8.51

CC(C)=CCC/C(C)=C/CO [(E)-3,7-dimethyl-2,6-octadien-1-ol]
Effect fraction ([3]; dose 0.040% w/v): -0.020
Log reduction ([3]; dose 0.040% w/v): -0.175
Effect fraction ([3]; dose 0.050% w/v): 0.130
Log reduction ([3]; dose 0.050% w/v): 0.909
Effect fraction ([3]; dose 0.055% w/v): 0.350
Log reduction ([3]; dose 0.055% w/v): 2.474
Effect fraction ([3]; dose 0.060% w/v): 0.660
Log reduction ([3]; dose 0.060% w/v): 4.760
Effect fraction ([3]; dose 0.070% w/v): 1.000
Log reduction ([3]; dose 0.070% w/v): 7.160
EACN [1]: -28.65
Log reduction (Log CFU/mL) Base 3 [2, 4]: 4.2 Log CFU/mL
Log reduction (Log CFU/mL) Base 4 [2, 4]: Insoluble
log reduction at 0.5 % [2, 5]: > 5.4
log reduction at 0.5 % [2, 6]: 0.5
log reduction at 0.5 % [2, 7]: > 5.5

CC1=CCC(C(C)(C)O)CC1 (racemic) [(+-)-alpha-terpineol]
EACN [1]: -16.69
log reduction at 0.5 % [2, 5]: 1.6

CCCCC(CC)CO (stereo not shown) [2-ethyl-1-hexanol]
Effect fraction ([3]; dose 0.060% w/v): 0.050
Log reduction ([3]; dose 0.060% w/v): 0.367
Effect fraction ([3]; dose 0.065% w/v): 0.100
Log reduction ([3]; dose 0.065% w/v): 0.728
Effect fraction ([3]; dose 0.070% w/v): 0.290
Log reduction ([3]; dose 0.070% w/v): 2.052
Effect fraction ([3]; dose 0.075% w/v): 0.510
Log reduction ([3]; dose 0.075% w/v): 3.678
Effect fraction ([3]; dose 0.080% w/v): 0.800
Log reduction ([3]; dose 0.080% w/v): 5.760
EACN [1]: -22.63
log reduction at 0.5 % [2, 5]: 3.6
log reduction at 0.5 % [2, 7]: 3.6

CC(C)(C)C1CCC(=O)CC1 [4-(2-methyl-2-propanyl)cyclohexanone]
EACN [1]: -3.78

CC(C=O)Cc1ccc2c(c1)OCO2 (racemic) [(+-)-3-(1,3-benzodioxol-5-yl)-2-methylpropanal]
EACN [1]: -11.56

C/C=C/c1ccc(O)c(OC)c1 [2-methoxy-4-[(1E)-1-propen-1-yl]phenol]
EACN [1]: -42.88
log reduction at 0.5 % [2, 5]: 0

CC1=CC(C)C(CO)C(C)C1 (racemic) [(+-)-2,4,6-trimethyl-3-cyclohexene-1-methanol]
EACN [1]: -25.02

CCCCCCCCCCC=O [undecanal]
EACN [1]: 4.59

CC/C(=C\C[C@H]1CC=C(C)C1(C)C)CO [(-)-(2E)-2-ethyl-4-[(1R)-2,2,3-trimethyl-3-cyclopenten-1-yl]-2-buten-1-ol]
EACN [1]: -23.86
Log reduction (Log CFU/mL) Base 3 [2, 4]: Insoluble
Log reduction (Log CFU/mL) Base 4 [2, 4]: Insoluble
log reduction at 0.5 % [2, 5]: -0.2
log reduction at 0.5 % [2, 6]: -1

CCCc1ccc2c(c1)OCC(=O)CO2 [7-propyl-2H,4H-1,5-benzodioxepin-3-one]
EACN [1]: -40.99
log reduction at 0.5 % [2, 5]: 0

CC/C=C\CC/C=C/CO [(2E,6Z)-2,6-nonadien-1-ol]
EACN [1]: -35.12
Log reduction (Log CFU/mL) Base 3 [2, 4]: 3.9 Log CFU/mL
Log reduction (Log CFU/mL) Base 4 [2, 4]: >4.5 Log CFU/mL
log reduction at 0.5 % [2, 5]: 5.6
log reduction at 0.5 % [2, 6]: 0.5
log reduction at 0.5 % [2, 7]: > 5.5

CC(=O)OC(C)c1ccccc1 (racemic) [(+-)-1-phenylethyl acetate]
EACN [1]: -0.99
Log reduction (Log CFU/mL) Base 3 [2, 4]: 0.2 Log CFU/mL
Log reduction (Log CFU/mL) Base 4 [2, 4]: Insoluble
log reduction at 0.5 % [2, 5]: 0.6 ± 1
log reduction at 0.5 % [2, 6]: 0

CC(CO)c1ccccc1 (racemic) [(+-)-2-phenyl-1-propanol]
EACN [1]: -29.67
log reduction at 0.5 % [2, 5]: -0.3

CCOC(=O)Cc1ccccc1 [ethyl phenylacetate]
EACN [1]: -7.26
